Experiments:
Conditions in all cases: 72 h
Caco-2 [1] = experiment: cell viability relative to DMSO; higher = less toxic
Calu-3 [2] = experiment: as above
HepG2 [3] = experiment: as above
U2OS [4] = experiment: as above
Vero E6 [5] = experiment: as above
Caco-2 [6] = experiment: relative viability EC50 (midpoint between 100% and the lowest measured viability); higher = less toxic
Calu-3 [7] = experiment: as above
HepG2 [8] = experiment: as above
U2OS [9] = experiment: as above
Vero E6 [10] = experiment: as above
Caco-2 [11] = experiment: drug sensitivity score (DSS) for viability; higher = more toxic; extreme values may be limits of the assay
Calu-3 [12] = experiment: as above
HepG2 [13] = experiment: as above
U2OS [14] = experiment: as above
Vero E6 [15] = experiment: as above

Structure (SMILES)	cell viability (Caco-2 [1]; 1 nM) [%]	cell viability (Caco-2 [1]; 10 nM) [%]	cell viability (Caco-2 [1]; 100 nM) [%]	cell viability (Caco-2 [1]; 1000 nM) [%]	cell viability (Caco-2 [1]; 10000 nM) [%]	cell viability (Calu-3 [2]; 1 nM) [%]	cell viability (Calu-3 [2]; 10 nM) [%]	cell viability (Calu-3 [2]; 100 nM) [%]	cell viability (Calu-3 [2]; 1000 nM) [%]	cell viability (Calu-3 [2]; 10000 nM) [%]	cell viability (HepG2 [3]; 1 nM) [%]	cell viability (HepG2 [3]; 10 nM) [%]	cell viability (HepG2 [3]; 100 nM) [%]	cell viability (HepG2 [3]; 1000 nM) [%]	cell viability (HepG2 [3]; 10000 nM) [%]	cell viability (U2OS [4]; 1 nM) [%]	cell viability (U2OS [4]; 10 nM) [%]	cell viability (U2OS [4]; 100 nM) [%]	cell viability (U2OS [4]; 1000 nM) [%]	cell viability (U2OS [4]; 10000 nM) [%]	cell viability (Vero E6 [5]; 1 nM) [%]	cell viability (Vero E6 [5]; 10 nM) [%]	cell viability (Vero E6 [5]; 100 nM) [%]	cell viability (Vero E6 [5]; 1000 nM) [%]	cell viability (Vero E6 [5]; 10000 nM) [%]	relative viability EC50 (Caco-2 [6]) [µM]	relative viability EC50 (Calu-3 [7]) [µM]	relative viability EC50 (HepG2 [8]) [µM]	relative viability EC50 (U2OS [9]) [µM]	relative viability EC50 (Vero E6 [10]) [µM]	drug sensitivity score (Caco-2 [11])	drug sensitivity score (Calu-3 [12])	drug sensitivity score (HepG2 [13])	drug sensitivity score (U2OS [14])	drug sensitivity score (Vero E6 [15])
CC(Cc1cccc(C(F)(F)F)c1)NCCOC(=O)c1ccccc1 (stereo not given) [benfluorex]	103	95.9	103	107	97.6	97.8	94.5	100	96.4	104	86	96.6	97.8	99.4	88.4	98.8	102	105	96.8	100	101	107	94.2	100	96.3	> 10	> 10	> 10	> 10	> 10	0	0	0	0	0
C=C(c1ccc(C(=O)O)cc1)c1cc2c(cc1C)C(C)(C)CCC2(C)C [bexarotene]	106	90.1	95.2	86.4	86.3	92.5	95.8	102	96.7	103	94.9	96.8	107	99.7	112	94	97.9	102	95	92.7	100	102	96.6	94.3	98	> 10	> 10	> 10	> 10	> 10	0.9	0	0	0	0
Oc1c(Cl)cc(Cl)cc1Sc1cc(Cl)cc(Cl)c1O [bithionol]	104	88.5	99	86	89.2	92.6	95.7	102	97.3	111	101	89.3	93	83.1	86.3	103	93.8	104	98.6	104	97.3	107	89.9	94.8	96.4	> 10	> 10	> 10	> 10	> 10	0.4	0	1.7	0	0
Cc1cc2c(OCC(CNC(C)(C)C)OC(=O)c3ccccc3)cccc2[nH]1 (stereo not given) [bopindolol]	93.7	102	95.4	102	91.7	101	102	108	103	92	94	100	101	96.8	95.8	92.7	101	93	110	90.4	101	91.6	95.9	98.5	98.1	> 10	> 10	> 10	> 10	> 10	0	0	0	0	0
CC(=O)OCC1=C(C(=O)O)N2C(=O)[C@@H](NC(=O)CS/C(=N/C(C)C)NC(C)C)[C@H]2SC1 [cefathiamidine]	97.9	96.5	113	107	96.6	97.3	107	107	108	102	94.6	89.3	96.8	98.1	105	94.3	94.3	97.9	98.8	102	99.7	101	95.1	102	109	> 10	> 10	> 10	> 10	> 10	0	0	0	0	0
Oc1c(Cl)cc(Cl)c2cccnc12 [chloroxine]	98.9	102	96.6	91.4	85.3	93.9	103	91.9	100	84.2	75.3	89.9	92.2	91.6	76	102	103	96.7	101	94.4	100	105	96.9	93.5	96.7	> 10	> 10	> 10	> 10	> 10	0.5	0.3	0	0	0
COc1ccc(/C=C\c2cc(OC)c(OC)c(OC)c2)cc1O [combretastatin-A-4]	93.5	76.9	52.8	40.3	43.9	100	107	85.8	47.2	34.5	99.6	99.8	45.2	37.9	37.3	94.5	47.4	22.3	23.6	22.2	97.1	63.9	22.5	22.8	25.1	0.0175	0.303	0.0466	0.006	0.0107	19.1	11.5	18.3	30.8	28.4

Source: the supplement of paper PMC13380429
